Measured values as given in BindingDB's records for doi:10.1016/j.ejmech.2019.05.053 (East China University of Science and Technology, 2019).

Assay: Reversal of P-gp-mediated multidrug resistance in human MCF7/Dox cells assessed as potentiation of doxorubicin-induced cytotoxicity by measuring doxorubicin IC50 at 12.5 uM after 48 hrs by MTT assay (Rvb = 51.19 +/- 0.95 microM)
`COc1cc(OC)c(C(=O)/C=C/c2cccc(N3CCOCC3)c2)c(O)c1CC=C(C)C` showed an IC50 of 31.6 µM.
`COc1ccc(/C=C/C(=O)c2c(OC)cc(OC)c(CC=C(C)C)c2O)cc1` gave an IC50 of 20.7 µM.
With `COc1cc(OC)c(C(=O)/C=C/c2ccc(Cl)cc2)c(O)c1CC=C(C)C` the IC50 was 21.8 µM.
For `COc1cc(OC)c(C(=O)/C=C/c2ccc(N(C)C)cc2)c(O)c1CC=C(C)C`, the IC50 was 17.4 µM.
For `COc1cc(OC)c(C(=O)/C=C/c2cccc(F)c2)c(O)c1CC=C(C)C`, the IC50 was 12.6 µM.
`COc1cc(OC)c(C(=O)/C=C/c2cccc(C(F)(F)F)c2)c(O)c1CC=C(C)C` showed an IC50 of 6.26 µM.
With `COc1cc(OC)c(C(=O)/C=C/c2ccc(OC)c(OC)c2OC)c(O)c1CC=C(C)C` the IC50 was 27.5 µM.
`COc1cc(OC)c(C(=O)/C=C/c2cccc(N3CCN(C(=O)OC(C)(C)C)CC3)c2)c(O)c1CC=C(C)C` showed an IC50 of 20.1 µM.
`COc1cc(OC)c(C(=O)/C=C/c2ccc(N3CCN(C(=O)OC(C)(C)C)CC3)cc2)c(O)c1CC=C(C)C` gave an IC50 of 52.2 µM.
`COc1cc(O)c(C(=O)/C=C/c2cccc(N3CCN(C)CC3)c2)c(OC)c1` showed an IC50 of 18 µM.
Compound `COc1cc(O)c(C(=O)/C=C/c2ccc(N3CCN(C(=O)OC(C)(C)C)CC3)cc2)c(OC)c1` has an IC50 of 59.2 µM.
With `COc1cc(O)c(C(=O)/C=C/c2cccc(N3CCN(C(=O)c4ccc(OC)c(OC)c4)CC3)c2)c(OC)c1` the IC50 was 42.3 µM.
`COc1ccc(C(=O)/C=C/c2cccc(N3CCNCC3)c2)c(OC)c1` gave an IC50 of 4.9 µM.
With `CCc1c(OC)cc(OC)c(C(=O)/C=C/c2cccc(N3CCNCC3)c2)c1O` the IC50 was 4.69 µM.
Work on `CCCCc1c(OC)cc(OC)c(C(=O)/C=C/c2cccc(N3CCNCC3)c2)c1O` yielded an IC50 of 3.57 µM.
`CCCCCc1c(OC)cc(OC)c(C(=O)/C=C/c2cccc(N3CCNCC3)c2)c1O` showed an IC50 of 23.6 µM.
`COc1cccc(/C=C/C(=O)c2c(OC)cc(OC)c(CC=C(C)C)c2O)c1` gave an IC50 of 7.86 µM.
In the case of `COc1cc(OC)c(C(=O)/C=C/c2cccc(Cl)c2)c(O)c1CC=C(C)C`, the IC50 is reported as 9.39 µM.
In the case of `COc1cc(OC)c(C(=O)/C=C/c2cccc(N3CCNCC3)c2)c(O)c1CC=C(C)C`, the IC50 is reported as 1.02 µM.
`COc1cc(O)c(C(=O)/C=C/c2cccc(N3CCNCC3)c2)c(OC)c1` gave an IC50 of 2.63 µM.
`COc1cc(O)c(C(=O)/C=C/c2cccc(N3CCOCC3)c2)c(OC)c1` gave an IC50 of 18.8 µM.
For `CCCc1c(OC)cc(OC)c(C(=O)/C=C/c2cccc(N3CCNCC3)c2)c1O`, the IC50 was 5.12 µM.
For `COc1c(C)c(O)c(C)c(O)c1C(=O)/C=C/c1ccccc1` [CHEBI:70658], the IC50 was 24.7 µM.
